Measurements reported in patent publication US11242337B2, “Compounds useful for treating gastrointestinal tract disorders” (Ardelyx, Inc., priority 2017, dated 2022).
Where two headings read alike, the source gives them in different places.

Tests used:
[1] = test system: absorption of sodium from the intestinal lumen; experiment: Inhibition of intestinal sodium absorption in mice; type: in vivo; settings: CD-1 mice, 15 mg/kg oral gavage twice daily; for Fecal fluid content (Δ from vehicle): day 3, change from vehicle group mean; for response vs control in vivo at 15 mg/kg: Mus musculus, 72 h, day 3, normalized to dietary sodium intake
Procedure: Urinary and fecal sodium excretions were measured to assess the ability of selected example compounds to inhibit the absorption of sodium from the intestinal lumen. In addition, an assessment of the absence or presence of diarrhea in response to compound treatment was made. Approximately eight-week old, male, CD-1 mice were purchased from Envigo (Livermore, Calif.), were housed 6 per cage and acclimated for at least 48 hours before study initiation. Animals were fed Harlan Teklad Global TD.160470 rodent chow (Madison, Wis.), standard laboratory rodent chow Harlan Teklad Global 2018 with the addition of 0.4% inorganic phosphorous. […] To initiate the study, mice were weighed and then individually placed in metabolic cages. Following a 3-day acclimation period to the metabolic cage, a 24-hr baseline collection of urine and feces was performed. […] Each day, measurements of body weight. 24-hour food intake, water intake, urine volume and wet fecal weight were recorded, along with any observation of diarrhea. Fecal samples were dried using a lyophilizer for at least 3 days, following which dry weight was recorded and fecal fluid content was calculated based on the difference between the wet and dry stool weights. Fecal fluid content on day 3 of compound treatment was calculated as a change from the vehicle group mean. For urine samples, the volumes were determined gravimetrically. Feces and urine were analyzed for sodium content by microwave plasma-atomic emission spectroscopy or ion chromatography, respectively. Urine samples were analyzed on an ion chromatography system (Thermo Fisher ICS-3000 or ICS-5000+) coupled with conductivity detectors. Chromatographic separation of cations was performed using an IonPac CS12A (Thermo Fisher) 2×250 mm analytical column with an isocratic elution using […] methanesulfonic acid. Concentrations were interpolated from a a standard curve (prepared in 10 mM HCl) for sodium ion based on retention time and peak area. Fecal sample analysis by Microwave Plasma Atomic Emission Spectrometry (MP-AES). Dry fecal samples were ground into a fine powder on a homogenizer and the ground samples (400-600 mg aliquots weighed) were digested with nitric acid by microwave method (Mars 6). These digested samples were diluted with 1% Nitric acid and analyzed on Agilent 4100 MP-AES. Concentrations were calculated relative to a standard curve (prepared in 1% Nitric acid) for sodium based on the signal intensity. Sodium was detected at a wavelength of 588.995 nm. Twenty-four-hour urinary sodium excretion (ma/24-hours) was calculated by multiplying urinary sodium concentration by 24-hour urine volume. Twenty-four-hour fecal sodium excretion (mg/24-hours) was calculated by multiplying fecal sodium concentration by 24-hour dry fecal weight. The urinary and fecal sodium excretion on day 3 of compound treatment were normalized to dietary sodium intake and expressed as a percentage of the vehicle mean.

[2] = test system: human duodenum monolayer culture; experiment: Increased trans-epithelial resistance (TEER) in human organoid monolayer cell cultures; type: cell-based; settings: 1 μM apical, baseline corrected
Procedure: Basal media (B consisted of advanced DMEM/F12 containing 10 mM HEPES (Invitrogen, 15630-080), 1:100 Glutamax (Invitrogen, 35050-061), and 1:100 penicillin/streptomycin (Invitrogen, 15140-122). Supplemented basal media (SBM) contained 1:100 N2 (Invitrogen, 17502-048), 1:50 B27 (Invitrogen, 12587-010), 1 mM N-acetylcysteine (Sigma, A9165), and 10 nM [Leu15]-gastrin I (Sigma, G9145). Growth factors used included 50 ng per mL mouse EGF (Peprotech, 315-09), 100 ng per mL mouse noggin (Peprotech, 250-38), 500 ng per mL human R-spondin 1 (R&D, 4645-RS), 100 ng per mL mouse Wnt-3a (R&D, 1324-WN), 20 μM Y-27632 (Tocris, 1254), 10 mM nicotinamide (Sigma, N0636), 500 nM A83-01 (Tocris, 2939), 10 μM SB202190 (Tocris, 1264). Transwells were 0.4 μm pore polyester membrane 24-well Transwell inserts (Corning). Cultures were incubated at 37° C. in 5% CO2.
Human duodenum organoids were cultured in WENRNAS (Wnt, EGF, noggin, R-spondin1, Nicotinamide, A83-01, SB202190) and typically grown for 7-12 days before being used to plate monolayer cultures. On day 0, organoid cultures embedded in Matrigel were treated with TrypLE Express to break organoids into small pieces and/or single cells. The cells were resuspended to 0.5×10^6 cells/mL in SBM containing WENRAY (Wnt, EGF, noggin, R-spondin1, A83-01, Y-27632). Following this step, 200 μL of cell suspension was plated into the apical side of a 24-well Transwell (100,000 cells/well) and 600 μL of SBM with WENRAY was added to the basolateral side. Duodenum cells were differentiated with ENA (EGF, noggin, A83-01) on day 3. The color of apical compartment turns from pink or orange to yellow due to the increase in NHE3 expression after differentiation.
Each human duodenum monolayer culture well was washed twice with fresh SBM on the apical side on day 6 or day 7 before dosing. All compound stocks were 10 mM dissolved DMSO. Each compound stock was individually mixed with fresh SBM to reach final compound concentration 1 μM and dosed only on the apical side of the monolayer (total volume 200 μl). DMSO at the equivalent concentration was used as the vehicle control. Duplicate wells were dosed for each compound. Transepithelial electrical resistance (TEER) was used as a quantitative technique to measure of tight junction permeability. TEER values were recorded (MERS00002, Millipore) before dosing and 30 mins and 1 hr after dosing for all wells. Each of the duplicate TEER values following treatment were corrected for the individual well baseline TEER. Baseline corrected TEER for each example compound was compared to the average of the DMSO wells and expressed as a percent TEER of vehicle control.

[3] = read-out: Fecal Na Excretion (% of vehicle)
[4] = read-out: Urinary Na Excretion (% of vehicle)

Cc1cc(S(=O)(=O)N2CC[C@@H](COc3ccnc(CNC(=O)NCCCCNC(=O)NCc4cc(OC[C@@H]5CCN(S(=O)(=O)c6ccc(O[C@H]7c8cc(Cl)cc(Cl)c8C[C@@H]7N(C)C)c(C)c6)C5)ccn4)c3)C2)ccc1O[C@H]1c2cc(Cl)cc(Cl)c2C[C@@H]1N(C)C [Example 49, 3-[(4-[[(3R)-1-[(4-[[(1S,2S)-4,6-Dichloro-2-(dimethylamino)-2,3-dihydro-1H-inden-1-yl]oxy]-3-methylbenzene)sulfonyl]pyrrolidin-3-yl]methoxy]pyridin-2-yl)methyl]-1-[4-([[(4-[[(3R)-1-[(4-[[(1S,2S)-4,6-dichloro-2-(dimethylamino)-2,3-dihydro-1H-inden-1-yl]oxy]-3-methylbenzene)sulfonyl]pyrrolidin-3-yl]methoxy]pyridin-2-yl)methyl]carbamoyl]amino)butyl]urea]
Fecal fluid content (Δ from vehicle) [1]: A (<5)
response vs control in vivo at 15 mg/kg [1, 3]: < 150%
response vs control in vivo at 15 mg/kg [1, 4]: > 70%

Cc1cc(S(=O)(=O)N[C@H]2CCN(CCOCCNC(=O)NCCCCNC(=O)NCCOCCN3CC[C@H](NS(=O)(=O)c4ccc(O[C@H]5c6cc(Cl)cc(Cl)c6C[C@@H]5N(C)C)c(C)c4)C3)C2)ccc1O[C@H]1c2cc(Cl)cc(Cl)c2C[C@@H]1N(C)C [Example 52, 3-(2-[2-[(3S)-3-[(4-[[(1S,2S)-4,6-Dichloro-2-(dimethylamino)-2,3-dihydro-1H-inden-1-yl]oxy]-3-methylbenzene)sulfonamido]pyrrolidin-1-yl]ethoxy]ethyl)-1-(4-[[(2-[2-[(3S)-3-[(4-[[(1S,2S)-4,6-dichloro-2-(dimethylamino)-2,3-dihydro-1H-inden-1-yl]oxy]-3-methylbenzene)sulfonamido]pyrrolidin-1-yl]ethoxy]ethyl)carbamoyl]amino]butyl)urea]
Fecal fluid content (Δ from vehicle) [1]: B (5-10)
response vs control in vivo at 15 mg/kg [1, 3]: > 200%
response vs control in vivo at 15 mg/kg [1, 4]: 50 to 70%

Cc1cc(S(=O)(=O)N[C@@H]2CCN(CCOCCNC(=O)NCCCCNC(=O)NCCOCCN3CC[C@@H](NS(=O)(=O)c4ccc(O[C@H]5c6cc(Cl)cc(Cl)c6C[C@@H]5N(C)C)c(C)c4)C3)C2)ccc1O[C@H]1c2cc(Cl)cc(Cl)c2C[C@@H]1N(C)C [Example 53, 3-(2-[2-[(3R)-3-[(4-[[(1S,2S)-4,6-Dichloro-2-(dimethylamino)-2,3-dihydro-1H-inden-1-yl]oxy]-3-methylbenzene)sulfonamido]pyrrolidin-1 yl]ethoxy]ethyl)-1-(4-[[(2-[2-[(3R)-3-[(4-[[(1S,2S)-4,6-dichloro-2-(dimethylamino)-2,3-dihydro-1H-inden-1-yl]oxy]-3-methylbenzene)sulfonamido]pyrrolidin-1-yl]ethoxy]ethyl)carbamoyl]amino]butyl)urea]
Fecal fluid content (Δ from vehicle) [1]: B (5-10)
response vs control in vivo at 15 mg/kg [1, 3]: < 150%
response vs control in vivo at 15 mg/kg [1, 4]: > 70%

Cc1cc(S(=O)(=O)N[C@@H]2CCN(CCOCCNC(=O)NCCCCNC(=O)NCCOCCN3CC[C@@H](NS(=O)(=O)c4ccc(O[C@H]5c6cc(Cl)cc(C#N)c6C[C@@H]5N(C)C)c(C)c4)C3)C2)ccc1O[C@H]1c2cc(Cl)cc(C#N)c2C[C@@H]1N(C)C [Example 55, 3-(2-[2-[(3R)-3-[(4-[[(1S,2S)-6-Chloro-4-cyano-2-(dimethylamino)-2,3-dihydro-1H-inden-1-yl]oxy]-3-methylbenzene)sulfonamido]pyrrolidin-1-yl]ethoxy]ethyl)-1-(4-[[(2-[2-[(3R)-3-[(4-[[(1S,2S)-6-chloro-4-cyano-2-(dimethylamino)-2,3-dihydro-1H-inden-1-yl]oxy]-3-methylbenzene)sulfonamido]pyrrolidin-1-yl]ethoxy]ethyl)carbamoyl]amino]butyl)urea]
Fecal fluid content (Δ from vehicle) [1]: B (5-10)
response vs control in vivo at 15 mg/kg [1, 3]: 150 to 200%
response vs control in vivo at 15 mg/kg [1, 4]: > 70%

Cc1cc(O[C@H]2c3cc(Cl)cc(Cl)c3C[C@@H]2N(C)C)c(F)cc1S(=O)(=O)NCCOCCOCCNC(=O)NCCCCNC(=O)NCCOCCOCCNS(=O)(=O)c1cc(F)c(O[C@H]2c3cc(Cl)cc(Cl)c3C[C@@H]2N(C)C)cc1C [Example 88, 3-[2-(2-[2-[(4-[[(1S,2S)-4,6-Dichloro-2-(dimethylamino)-2,3-dihydro-1H-inden-1-yl]oxy]-5-fluoro-2-methylbenzene)sulfonamido]ethoxy]ethoxy)ethyl]-1-[4-([[2-(2-[2-[(4-[[(1S,2S)-4,6-dichloro-2-(dimethylamino)-2,3-dihydro-1H-inden-1-yl]oxy]-5-fluoro-2-methylbenzene)sulfonamido]ethoxy]ethoxy)ethyl]carbamoyl]amino)butyl]urea]
Fecal fluid content (Δ from vehicle) [1]: B (5-10)
response vs control in vivo at 15 mg/kg [1, 3]: 150 to 200%
response vs control in vivo at 15 mg/kg [1, 4]: 50 to 70%

Cc1cc(S(=O)(=O)N[C@H]2CCN(CCOCCNC(=O)NCCCCNC(=O)NCCOCCN3CC[C@H](NS(=O)(=O)c4ccc(O[C@H]5c6cc(Cl)cc(Cl)c6C[C@@H]5N(C)C)c(C)c4)C3=O)C2=O)ccc1O[C@H]1c2cc(Cl)cc(Cl)c2C[C@@H]1N(C)C [Example 91, 1-(2-[2-[(3S)-3-[(4-[[(1S,2S)-4,6-Dichloro-2-(dimethylamino)-2,3-dihydro-1H-inden-1-yl]oxy]-3-methylbenzene)sulfonamido]-2-oxopyrrolidin-1-yl]ethoxy]ethyl)-3-(4-[[(2-[2-[(3S)-3-[(4-[[(1S,2S)-4,6-dichloro-2-(dimethylamino)-2,3-dihydro-1H-inden-1-yl]oxy]-3-methylbenzene)sulfonamido]-2-oxopyrrolidin-1-yl]ethoxy]ethyl)carbamoyl]amino]butyl)urea]
activity at 1 µM ([2]; 1 hr after dosing, read-out: TEER at 60 minutes (% of Vehicle)): 100 to 130%
activity at 1 µM ([2]; 0.5 h, 30 mins after dosing, read-out: TEER at 30 minutes (% of Vehicle)): 100 to 130%
